# According to patent US10363229B2, “Methods and compositions for the treatment of cancer” (priority 2009, dated 2019):
# What was measured:
# [1] = test system: actin filaments in melanoma cells; experiment: Immunofluorescence of actin filaments; type: cell-based, mouse; details: 2% methyl sulfone, 72 hours
# Method: Cells were plated onto 10-well slides ( ) that were pre-treated with sulfuric acid. After 24 hours, medium was removed and 2% methyl sulfone in medium was added to half the slides; control cells received medium alone. At 72 and 144 hours, cells were washed in 37° C. PBS, pH 7.4, and fixed in 3.7% formaldehyde in PBS for 10 minutes. PBS was used to wash cells three times followed by a wash in 0.1% Triton X-100/PBS for 5 minutes. Cells were again washed three times in PBS, then in 1% BSA/PBS for 20 minutes. Cells were incubated with Rhodamine-labeled Phalloidin (Molecular Probes, Eugene, Oreg.; diluted 1/40 in 1% BSA/PBS) for 20 minutes. After washing three times in PBS, SlowFade was added to each well. Glass coverslips were placed over each slide and sealed with nail polish. Images were visualized using 568-nm excitation on a Perkin Elmer Ultraview RS5 spinning-disk confocal scanning system mounted on a Nikon TE2000 inverted microscope with a 100×1.4 NA Plan Apo oil immersion objective. (William A. Mohler, Ph.D., Director, Spinning Disk Microscope Facility, University of Connecticut Health Center).
# [2] = test system: M3 Cloudman melanoma cells; experiment: Live cell video microscopy of melanoma cells (morphology, contact inhibition); type: cell-based, mouse
# Method: (§1) Cloudman S-91 mouse melanoma cells (sub-clone M-3, CCL 53.1; American Type Culture Collection, Rockville, Md.) were grown in RMPI medium supplemented with 10% fetal bovine serum (Invitrogen, Inc) and 5% penicillin-streptomycin (Invitrogen, Inc). Mouse breast cancer cells (66Cl-1; American Type Culture Collection, Rockville, Md.) that are estrogen-receptor negative were grown in DMEM medium supplemented with 10% fetal bovine serum (Invitrogen, Inc) and 5% penicillin/streptomycin (Invitrogen, Inc). Human T-cell leukemic lymphocytes (CEM; American Type Culture Collection, Rockville, Md.) were grown in MEM medium supplemented with 7% fetal calf serum. Cultures were passaged twice a week.
# Cells were plated on 35 mm tissue culture dishes at concentration of 10^5 cells/plate, unless stated otherwise, and incubated at 37° C., 5% CO2. After 24 hours, methyl sulfone (0-10% in medium) was added to appropriate plates and immediately videotaped with a Nikon TE300 inverted microscope equipped with a 10×0.25 NA Plan Achromat objective lens. Control cells (no drug) were videotaped as described above. Time series (10 min) of phase contrast images were acquired at a video rate of 1 frame/5 s with a Watec-902B CCD video camera (Watec Corp., Japan) via the stream acquisition option of Metamorph image acquisition and analysis software (Universal Imaging Corp., Downington, Pa.). During recordings, cells were kept at 37° C. with 10 mM Hepes, pH 7.4. Time series of cells +/−2% methyl sulfone were obtained every 24-48 hours for up to 6 weeks.
# (§2) M3 Cloudman melanoma cells were plated into culture dishes containing RPMI medium. After 24 hour media was changed to control medium (no drug) or to media containing different concentrations of methyl sulfone (1-10% methyl sulfone in RPMI medium). Cells were examined by live cell video microscopy immediately after adding drug and every 24 hours up to 144 hours.
# The possibility that the data generated from treating cells with methyl sulfone was a nonspecific effect due to changes in extracellular osmolarity was considered. To test this possibility an equimolar concentration of urea was substituted for 2% methyl sulfone; urea has a chemical structure and dipolar moment that is similar to methyl sulfone. […] We next replaced 2% methyl sulfone with an equimolar concentration of dimethyl sulfoxide (DMSO).
# melanoma cells = experiment: Cell invasion assay (Transwell, ECM gel); type: cell-based, mouse; details: 2% methyl sulfone
# Method: Invasion assays were performed in Transwell chambers (Corning). The 8 μm pore membranes of the upper chambers were coated with ECM gel from Engelbreth-Holm-Swarm murine sarcoma (Sigma), diluted 1:6 with RPMI medium +/−2% methyl sulfone, and placed in a well with RPMI medium +/−2% methyl sulfone. Cells (1×10^5 cells/200 μl) were seeded into appropriate upper chambers in RMPI medium+/−2% methyl sulfone. After 20 hours of incubation at 37° C., cells were removed from top surface of the chamber and filters were fixed with 5% glutaraldeyde. Cells on the lower surface of the filter were stained with a 0.5% solution of toluidine blue. Membranes of inserts were removed with a razor, mounted between a glass slide and a coverslip, and held in place with scotch tape. Cells were photographed and counted at the Center for Cell Analysis and Modeling, University of Connecticut Health Center, Farmington, Conn., with an Axioplan CCD Microscope equipped with a 40×1.3 NA FL objective lens and high speed digital cooled CCD camera via Metamorph image acquisition and analysis software (Universal Imaging Corp., Downington, Pa.). All assays were performed in triplicate.
# A second classic characteristic of metastatic cells is their ability to migrate through an extracellular matrix. We determined whether methyl sulfone altered this ability in melanoma cells. […]
# [3] = test system: Cloudman S-91 mouse melanoma cells (sub-clone M-3); experiment: Annexin V-FITC/propidium iodide apoptosis assay in melanoma cells; type: cell-based
# Method: as §1
# Early and late apoptosis was assessed with the Annexin V-FITC Apoptosis Detection Kit from PharMingen (Becton-Dickinson, San Diego, Calif.). Images were obtained at the Center for Cell Analysis and Modeling, University of Connecticut Health Center, Farmington, Conn., with an Axioplan CCD Microscope equipped with a 40×1.3 NA FL objective lens and Photometrics PXL-EEV37 high speed digital cooled CCD camera via Metamorph image acquisition and analysis software (Universal Imaging Corp., Downington, Pa.).
# as §2
# Briefly, melanoma cells (Cloudman M3 cell line) were plated at 10^5 cells/ml in RPMI medium. After 24 hours, medium was replaced with RPMI containing different concentrations (grams/volume) of MMS, MES and EES. After 24 hours, apoptosis was assayed using the Becton-Dickinson Annexin V-FITC/Propidium Iodide Kit and a Nikon fluorescent microscope as described by the manufacturer.
substance,measurement,setting,value
methyl sulfone,distribution of actin filaments,[1],clearly visible at the cell surface in small protrusions that contacted neighboring cells
same,contact inhibition,"[2]; 2% methyl sulfone, by 24 hours",contact inhibited
same,cell morphology after re-attachment,"[2]; 2% methyl sulfone, over the next few hours",flattened morphology
same,morphology immediately after adding drug,[2]; all concentrations (1-10% in RPMI medium),cells became round with some cells detaching from culture plates
same,cells that migrated through the extracellular matrix,melanoma cells,none and unable to pass through the membrane
same,apoptosis of melanoma cells,"[3]; 6% methyl sulfone, 24 hours",induced into apoptosis
same,apoptosis of M3 cells compared with MES or EES,"[3]; 24 hours, especially at less than 5%",significantly less apoptosis
same,window of concentrations between killing cancer cells and harming normal cells,[3]; conclusion from FIGS. 16 and 17,wide window
same,methyl sulfone concentration at which melanoma cells became apoptotic,"[3]; melanoma cells, FIG. 1 legend",over 2%
